From ChEMBL document CHEMBL3611967, “Molecular design and synthesis of certain new quinoline derivatives having potential anticancer activity” (Eur J Med Chem, 2015) come the findings set out here.

One assay deals with MCF7. Put plainly: Anticancer against human MCF7 cells assessed as tumor growth inhibition after 72 hrs by SRB assay. Conditions: MCF7, 72 h. It is filed as functional, cell-based.
Assay [1] has as its target T1, Epidermal growth factor receptor (Homo sapiens, UniProt P00533). Put plainly: Inhibition of epidermal growth factor receptor kinase (unknown origin) using [33P]-ATP after 20 to 30 mins by radiometric assay.
Assay [2] deals with T1, Epidermal growth factor receptor. Briefly: Inhibition of epidermal growth factor receptor kinase (unknown origin) using [33P]-ATP at 0.001 uM after 20 to 30 mins by radiometric assay.
The target is the same in assay [3]. Briefly: Inhibition of epidermal growth factor receptor kinase (unknown origin) using [33P]-ATP at 0.1 mM after 20 to 30 mins by radiometric assay.

T1 sequence (P00533 whole entry): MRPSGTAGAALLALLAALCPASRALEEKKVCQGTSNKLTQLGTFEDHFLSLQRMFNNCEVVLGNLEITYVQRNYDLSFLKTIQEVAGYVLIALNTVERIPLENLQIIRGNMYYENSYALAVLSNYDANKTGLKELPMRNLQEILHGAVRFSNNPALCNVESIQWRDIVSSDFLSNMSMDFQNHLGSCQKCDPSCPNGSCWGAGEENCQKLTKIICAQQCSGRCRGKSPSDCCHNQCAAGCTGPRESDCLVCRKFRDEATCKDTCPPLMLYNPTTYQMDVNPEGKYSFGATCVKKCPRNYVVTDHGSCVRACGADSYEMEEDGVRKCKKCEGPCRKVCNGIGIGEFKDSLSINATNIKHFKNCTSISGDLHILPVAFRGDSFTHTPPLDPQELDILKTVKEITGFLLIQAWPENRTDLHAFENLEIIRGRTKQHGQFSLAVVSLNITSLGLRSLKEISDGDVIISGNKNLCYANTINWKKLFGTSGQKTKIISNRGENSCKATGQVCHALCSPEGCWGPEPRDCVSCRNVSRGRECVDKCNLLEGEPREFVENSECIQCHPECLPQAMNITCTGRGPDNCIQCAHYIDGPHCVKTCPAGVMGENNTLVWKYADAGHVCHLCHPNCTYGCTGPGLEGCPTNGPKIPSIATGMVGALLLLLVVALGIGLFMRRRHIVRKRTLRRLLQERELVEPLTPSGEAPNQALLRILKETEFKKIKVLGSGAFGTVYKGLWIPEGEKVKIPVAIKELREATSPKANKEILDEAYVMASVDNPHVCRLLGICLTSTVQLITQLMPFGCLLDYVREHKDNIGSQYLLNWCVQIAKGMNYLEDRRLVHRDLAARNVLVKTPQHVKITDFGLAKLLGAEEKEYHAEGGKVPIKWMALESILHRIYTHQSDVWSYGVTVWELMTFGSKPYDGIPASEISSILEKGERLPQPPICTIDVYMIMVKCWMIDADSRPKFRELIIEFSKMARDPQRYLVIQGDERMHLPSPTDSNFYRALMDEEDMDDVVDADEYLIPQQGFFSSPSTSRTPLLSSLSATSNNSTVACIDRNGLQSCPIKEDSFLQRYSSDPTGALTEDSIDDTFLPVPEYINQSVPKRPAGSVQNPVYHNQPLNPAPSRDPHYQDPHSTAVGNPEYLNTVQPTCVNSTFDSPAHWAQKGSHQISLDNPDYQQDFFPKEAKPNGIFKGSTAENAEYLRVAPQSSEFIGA

Consider `NC(=O)c1cnc2ccc(-c3csc(NC(=S)Nc4ccccc4)n3)cc2c1Nc1ccc(Cl)cc1`, for which, in the assay on MCF7, the IC50 came out at 326 µM.

As for `NC(=O)c1cnc2ccc(C(=O)/C=C/c3ccc(Cl)cc3)cc2c1Nc1ccc(Cl)cc1`, the IC50 in the assay on MCF7 came out at 277 µM.

As for `NC(=O)c1cnc2ccc(C(=O)/C=C/c3ccc(Cl)cc3)cc2c1Nc1ccc(Br)cc1`, the figures for the 50% inhibitory concentration (IC50) (in the assay on MCF7; in assay [1]) were 328 µM and 4.82 µM, respectively. Further, the inhibition in assay [2] is 0%; in assay [3] it was -3%.

Regarding `Cc1cc(NS(=O)(=O)c2ccc(N/C=C(/C#N)C(=O)Nc3ccc(Cl)cc3)cc2)no1`, the IC50 in the assay on MCF7 turned out to be 28.4 µM.

With `NC(=O)c1cnc2ccc(-c3csc(NC(=S)Nc4ccccc4)n3)cc2c1Nc1ccc(Br)cc1`, in the assay on MCF7, the IC50 is 657 µM.

On to `Cc1cc(NS(=O)(=O)c2ccc3ncc(C(N)=O)c(Nc4ccc(Br)cc4)c3c2)no1`, for which the IC50 in the assay with MCF7 was 33.7 µM.

Consider `NC(=O)c1cnc2ccc(-c3csc(N)n3)cc2c1Nc1ccc(Cl)cc1`, for which the IC50 with MCF7 was determined as 315 µM.

Consider `Cc1ccc(Nc2c(C(N)=O)cnc3ccc(-c4csc(N)n4)cc23)cc1`, for which the IC50 in the assay on MCF7 was determined as 62.2 µM.

As for `Cc1cc(NS(=O)(=O)c2ccc(N/C=C(/C#N)C(=O)Nc3ccc(Br)cc3)cc2)no1`, the IC50 in the assay on MCF7 was found to be 14 µM.

Consider `Cc1cc(NS(=O)(=O)c2ccc3ncc(C(N)=O)c(Nc4ccc(Cl)cc4)c3c2)no1`, for which the IC50 in the assay with MCF7 worked out at 145 µM.

Turning to `Cc1ccc(Nc2c(C(N)=O)cnc3ccc(S(=O)(=O)Nc4cc(C)on4)cc23)cc1`, the IC50 in the assay with MCF7 was 120 µM.

Turning to `Cc1ccc(Nc2c(C(N)=O)cnc3ccc(C(=O)/C=C/c4ccc(Cl)cc4)cc23)cc1`, in the assay with MCF7, the IC50 came to 41.2 µM.

Regarding `CN(C)c1ccc(/C=C/C(=O)c2ccc3ncc(C(N)=O)c(Nc4ccc(Br)cc4)c3c2)cc1`, in the assay with MCF7, the IC50 stood at 51 µM.

Consider `C=CC(=O)Nc1ccc2ncnc(Nc3cc(F)c(Cl)c(Cl)c3)c2c1`, for which the midpoint of inhibition in assay [1], the IC50, lay at 3.7e-05 µM.

As to `CN(C)c1ccc(/C=C/C(=O)c2ccc3ncc(C(N)=O)c(Nc4ccc(Cl)cc4)c3c2)cc1`, the half-inhibitory concentration (IC50) in the assay with MCF7 was found to be 3.46 µM; in assay [1], 5.28 µM. Further, the inhibition in assay [2] is 1%; in assay [3] it was 3%.

With `Cc1ccc(NC(=O)/C(C#N)=C\Nc2ccc(S(=O)(=O)Nc3cc(C)on3)cc2)cc1`, the 50% inhibitory concentration (IC50) with MCF7 is 50.9 µM.

For `Cc1ccc(Nc2c(C(N)=O)cnc3ccc(-c4csc(NC(=S)Nc5ccccc5)n4)cc23)cc1`, in the assay with MCF7, the IC50 is 386 µM.

As to `Cc1ccc(Nc2c(C(N)=O)cnc3ccc(C(=O)/C=C/c4ccc(N(C)C)cc4)cc23)cc1`, the IC50 with MCF7 came out at 2.16 µM.

As to `NC(=O)c1cnc2ccc(-c3csc(N)n3)cc2c1Nc1ccc(Br)cc1`, the IC50 with MCF7 worked out at 334 µM.
